According to patent publication US12435059B2, “AMP-activated protein kinase inhibitors and methods of making and using the same” (The Regents of the University of Colorado, priority 2019, dated 2025):
Where two headings read alike, the source gives them in different places.

Tests used:
Experiment in all cases: biochemical
Assay type in all cases: binding
468 kinases [1] = biological target: 468 kinases (Homo sapiens, UniProt Q13523); details: PRP4; read-out: % Inhibition @ 100 nM
468 kinases [2] = biological target: 468 kinases (Homo sapiens, UniProt P57059); details: SIK; read-out: % Inhibition @ 100 nM
468 kinases [3] = biological target: 468 kinases (Homo sapiens, UniProt O94804); details: LOK; read-out: % Inhibition @ 100 nM
468 kinases [4] = biological target: 468 kinases (Homo sapiens, UniProt Q9UK32); details: read-out: % Inhibition @ 100 nM
468 kinases [5] = biological target: 468 kinases (Homo sapiens, UniProt P17612); details: PKAC-alpha; read-out: % Inhibition @ 100 nM
468 kinases [6] = biological target: 468 kinases (Homo sapiens, UniProt Q8NFD2); details: ANKK1; read-out: % Inhibition @ 100 nM
468 kinases [7] = biological target: 468 kinases (Homo sapiens, UniProt Q86Z02); details: HIPK1; read-out: % Inhibition @ 100 nM
468 kinases [8] = biological target: 468 kinases (Homo sapiens, UniProt Q9UKE5); details: TNIK; read-out: % Inhibition @ 100 nM
468 kinases [9] = biological target: 468 kinases (Homo sapiens, UniProt O43353); details: RIPK2; read-out: % Inhibition @ 100 nM
468 kinases [10] = biological target: 468 kinases (Homo sapiens, UniProt P51956); details: NEK3; read-out: % Inhibition @ 100 nM
468 kinases [11] = biological target: 468 kinases (Homo sapiens, UniProt Q9NYY3); details: PLK2; read-out: % Inhibition @ 100 nM
468 kinases [12] = biological target: 468 kinases (Homo sapiens, UniProt Q00532); details: CDKL1; read-out: % Inhibition @ 100 nM
468 kinases [13] = biological target: 468 kinases (Homo sapiens, UniProt P41743); details: PRKCI; read-out: % Inhibition @ 100 nM
468 kinases [14] = biological target: 468 kinases (Homo sapiens, UniProt P36888, D835H); details: FLT3(D835H); read-out: % Inhibition @ 100 nM
468 kinases [15] = biological target: 468 kinases (Homo sapiens, UniProt Q9H2X6); details: HIPK2; read-out: % Inhibition @ 100 nM
468 kinases [16] = biological target: 468 kinases (Homo sapiens, UniProt Q9P2K8, S808G); details: GCN2(Kin.Dom.2,S808G); read-out: % Inhibition @ 100 nM
468 kinases [17] = biological target: 468 kinases (Homo sapiens, UniProt Q2M2I8); details: AAK1; read-out: % Inhibition @ 100 nM
468 kinases [18] = biological target: 468 kinases (Homo sapiens, UniProt P54762); details: EPHB1; read-out: % Inhibition @ 100 nM
468 kinases [19] = biological target: 468 kinases (Homo sapiens, UniProt Q8N568); details: DCAMKL2; read-out: % Inhibition @ 100 nM
468 kinases [20] = biological target: 468 kinases (Homo sapiens, UniProt O14920); details: IKK-beta; read-out: % Inhibition @ 100 nM
468 kinases [21] = biological target: 468 kinases (Homo sapiens, UniProt O15197); details: EPHB6; read-out: % Inhibition @ 100 nM
468 kinases [22] = biological target: 468 kinases (Homo sapiens, UniProt P42685); details: FRK; read-out: % Inhibition @ 100 nM
468 kinases [23] = biological target: 468 kinases (Homo sapiens, UniProt Q13043); details: MST1; read-out: % Inhibition @ 100 nM
468 kinases [24] = biological target: 468 kinases (Homo sapiens, UniProt P21709); details: EPHA1; read-out: % Inhibition @ 100 nM
468 kinases [25] = biological target: 468 kinases (Homo sapiens, UniProt P27448); details: MARK3; read-out: % Inhibition @ 100 nM
468 kinases [26] = biological target: 468 kinases (Homo sapiens, UniProt P43405); details: SYK; read-out: % Inhibition @ 100 nM
468 kinases [27] = biological target: 468 kinases (Homo sapiens, UniProt P14616); details: INSRR; read-out: % Inhibition @ 100 nM
468 kinases [28] = biological target: 468 kinases (Homo sapiens, UniProt P00533, DEL752-759); details: EGFR(S752-1759del); read-out: % Inhibition @ 100 nM
468 kinases [29] = biological target: 468 kinases (Homo sapiens, UniProt Q8WTQ7); details: GRK7; read-out: % Inhibition @ 100 nM
468 kinases [30] = details: for Number of kinases inhibited >90%: at 100 nM, of 468 kinases
468 kinases [31] = biological target: 468 kinases (Homo sapiens, UniProt P00533, DEL746-750); details: EGFR(E746-A750del); read-out: % Inhibition @ 100 nM
468 kinases [32] = biological target: 468 kinases (Homo sapiens, UniProt O75460); details: ERN1; read-out: % Inhibition @ 100 nM

SMILES	inhibition at 0.1 µM (468 kinases [1])	inhibition at 0.1 µM (468 kinases [2])	inhibition at 0.1 µM (468 kinases [3])	inhibition at 0.1 µM (468 kinases [4]; RSK4(Kin.Dom.1-N-terminal))	inhibition at 0.1 µM (468 kinases [4]; RSK4(Kin.Dom.2-C-terminal))	inhibition at 0.1 µM (468 kinases [5])	inhibition at 0.1 µM (468 kinases [6])	inhibition at 0.1 µM (468 kinases [7])	inhibition at 0.1 µM (468 kinases [8])	inhibition at 0.1 µM (468 kinases [9])	inhibition at 0.1 µM (468 kinases [10])	inhibition at 0.1 µM (468 kinases [11])	inhibition at 0.1 µM (468 kinases [12])	inhibition at 0.1 µM (468 kinases [13])	inhibition at 0.1 µM (468 kinases [14])	inhibition at 0.1 µM (468 kinases [15])	inhibition at 0.1 µM (468 kinases [16])	inhibition at 0.1 µM (468 kinases [17])	inhibition at 0.1 µM (468 kinases [18])	inhibition at 0.1 µM (468 kinases [19])	other results
CCN(CC)CCNC(=O)c1c(C)[nH]c(/C=C2\C(=O)Nc3ccc(CCO)cc32)c1C [Compound No. 10, (Z)—N-(2-(Diethylamino)ethyl)-5-((5-(2-hydroxyethyl)-2-oxoindolin-3-ylidene)methyl)-2,4-dimethyl-1H-pyrrole-3-carboxamide]	87%	0%	3%	0%	4%	0%	53%	56%	86%	0%	50%	0%	31%	12%	91.7%	58%	28%	88%	0%	0%	inhibition at 0.1 µM (468 kinases [20]): 8%; inhibition at 0.1 µM (468 kinases [21]): 0%; inhibition at 0.1 µM (468 kinases [22]): 0%; inhibition at 0.1 µM (468 kinases [23]): 28%; inhibition at 0.1 µM (468 kinases [24]): 0%; inhibition at 0.1 µM (468 kinases [25]): 0%; inhibition at 0.1 µM (468 kinases [26]): 16%; inhibition at 0.1 µM (468 kinases [27]): 1%; inhibition at 0.1 µM (468 kinases [28]): 14%; inhibition at 0.1 µM (468 kinases [29]): 40%; % Inhibition @ 100 nM (468 kinases [30]; EGFR(L747-E749del, A750P)): 0%; % Inhibition @ 100 nM (468 kinases [30]; EGFR(L747-S752del, P753S)): 23%; % Inhibition @ 100 nM (468 kinases [30]; EGFR(L747-T751del,Sins)): 37%; % Inhibition @ 100 nM (468 kinases [30]; FLT3(ITD)): 99.3%; % Inhibition @ 100 nM (468 kinases [30]; FLT3(ITD,D835V)): 99.15%; % Inhibition @ 100 nM (468 kinases [30]; FLT3(ITD,F691L)): 100%; Number of kinases inhibited >90% (468 kinases [30]): 28 kinases; inhibition at 0.1 µM (468 kinases [31]): 32%; inhibition at 0.1 µM (468 kinases [32]): 0%
CCN(CC)CCNC(=O)c1c(C)[nH]c(/C=C2\C(=O)Nc3ccc(CCC(N)=O)cc32)c1C [Compound No. 16, (Z)-5-((5-(3-Amino-3-oxopropyl)-2-oxoindolin-3-ylidene)methyl)-N-(2-(diethylamino)ethyl)-2,4-dimethyl-1H-pyrrole-3-carboxamide]	76%	9%	0%	70%	22%	0%	66%	92.6%	55%	18%	45%	19%	26%	37%	92.9%	99.5%	0%	89%	8%	3%	inhibition at 0.1 µM (468 kinases [20]): 19%; inhibition at 0.1 µM (468 kinases [21]): 34%; inhibition at 0.1 µM (468 kinases [22]): 38%; inhibition at 0.1 µM (468 kinases [23]): 0%; inhibition at 0.1 µM (468 kinases [24]): 0%; inhibition at 0.1 µM (468 kinases [25]): 0%; inhibition at 0.1 µM (468 kinases [26]): 0%; inhibition at 0.1 µM (468 kinases [27]): 10%; inhibition at 0.1 µM (468 kinases [28]): 19%; inhibition at 0.1 µM (468 kinases [29]): 76%; % Inhibition @ 100 nM (468 kinases [30]; EGFR(L747-E749del, A750P)): 27%; % Inhibition @ 100 nM (468 kinases [30]; EGFR(L747-S752del, P753S)): 5%; % Inhibition @ 100 nM (468 kinases [30]; EGFR(L747-T751del,Sins)): 11%; % Inhibition @ 100 nM (468 kinases [30]; FLT3(ITD)): 97.2%; % Inhibition @ 100 nM (468 kinases [30]; FLT3(ITD,D835V)): 100%; % Inhibition @ 100 nM (468 kinases [30]; FLT3(ITD,F691L)): 100%; Number of kinases inhibited >90% (468 kinases [30]): 33 kinases; inhibition at 0.1 µM (468 kinases [31]): 7%; inhibition at 0.1 µM (468 kinases [32]): 10%
